What was measured:
hA2B (A2BAR) = biological target: T1, hA2B (A2BAR) (Homo sapiens, UniProt P29275); assay: cAMP assay, NECA-stimulated, HEK-293 cells with transfected A2BAR; assay type: cell-based; settings: n=3, read-out: Kb hA2B (cAMP production)
T1 construct: expressed in transfected cells; host or cells: HEK-293
T1 sequence (P29275 1-332): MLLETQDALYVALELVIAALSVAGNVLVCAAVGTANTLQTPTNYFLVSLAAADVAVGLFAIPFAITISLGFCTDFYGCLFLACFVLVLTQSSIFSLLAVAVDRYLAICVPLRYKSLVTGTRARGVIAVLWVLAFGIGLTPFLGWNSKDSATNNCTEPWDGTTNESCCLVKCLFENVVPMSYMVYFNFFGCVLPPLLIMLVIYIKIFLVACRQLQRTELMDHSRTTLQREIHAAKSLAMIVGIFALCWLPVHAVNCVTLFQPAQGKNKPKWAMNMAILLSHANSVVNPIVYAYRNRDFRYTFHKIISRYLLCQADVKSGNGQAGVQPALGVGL
Protocol: Assays were performed in transfected A2BAR using a cyclic AMP (cAMP) enzyme immunoassay kit (Amersham Biosciences) following previously described protocols.[28 30] HEK-293 cells were seeded (10,000 cells/well) in 96-well culture plates and incubated at 37°C in an atmosphere with 5% CO2 in Eagle’s Medium Nutrient Mixture F-12 (EMEM F-12), containing 10% fetal calf serum (FCS) and 1% L-Glutamine. Cells were washed three times with 200 µL assay medium (EMEM-F12 and 25 mM HEPES pH=7.4) and pre-incubated with assay medium containing 30 µM rolipram and test compounds at 37°C for 15 min. Ten µM NECA was incubated for 15 min at 37°C (total incubation time 30 min). Reaction was stopped with lysis buffer supplied in the kit and the enzyme immunoassay was carried out for detection of intracellular cAMP at 450 nm in an Ultra Evolution detector (Tecan). The dose-response curve of NECA-elicited cAMP formation was used to determine the initial choice of A2BAR antagonist concentration (online supplemental figure 2).

human A3AR = biological target: T2, human A3AR (Homo sapiens, UniProt P0DMS8); assay: Radioligand binding, human A3AR ([3H]NECA, transfected HeLa cells); settings: displacement of [3H]NECA, n=3, racemic mixtures
T2 construct: expressed in transfected cells; host or cells: HeLa
T2 sequence (P0DMS8 1-318): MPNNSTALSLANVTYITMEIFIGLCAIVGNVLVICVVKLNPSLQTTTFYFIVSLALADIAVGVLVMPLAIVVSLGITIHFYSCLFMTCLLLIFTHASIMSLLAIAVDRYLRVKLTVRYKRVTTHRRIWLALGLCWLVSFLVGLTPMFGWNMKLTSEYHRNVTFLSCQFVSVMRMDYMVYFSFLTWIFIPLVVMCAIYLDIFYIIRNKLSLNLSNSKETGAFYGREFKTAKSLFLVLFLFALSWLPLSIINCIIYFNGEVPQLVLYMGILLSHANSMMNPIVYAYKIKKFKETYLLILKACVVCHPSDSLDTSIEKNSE
Protocol: The affinity and selectivity profiles of the ligands obtained was studied in vitro, radioligand binding assays, at the four human specific ARs subtypes, using experimental protocols previously described.[28–30] All ligands were prepared and tested as racemic mixtures. […] Non-specific binding was determined in the presence of R-PIA 10 µM for A1AR, NECA 50 µM for A2AAR, NECA 400 μΜ for A2BAR and R-PIA 100 μΜ for A3AR.

[1] = test system: breast cancer TILs against autologous tumor cells; assay: Chromium (51Cr) release cytotoxicity assay, breast cancer TILs; assay type: cell-based, human; settings: synthetic ADO, 48 hours
Protocol: Chromium (51Cr) release cytotoxicity assay
Chromium (51Cr) release assay was used to measure the autologous TILs-mediated cytotoxicity against the established patient-derived breast and […] cell lines. Briefly, breast and sarcoma tumor cells were labelled with 51Cr (PerkinElmer) as target cells and seeded on 96-well V-bottom plate (Corning) at 5 000cells/well. Effector TILs were added at the indicated Effector: Target (E:T) ratios. The supernatants were collected carefully into LUMA plates (PerkinElmer) after 24 and 48 hours of co-culture. After drying overnight, radioactivity of the plate was read with MicroBeta2 (PerkinElmer).
Relative adenosine production assay
An ectonucleotidase CD73 assay was optimized to measure the relative ADO production based on competitive AMP blockade and presence of CD73+ cells. Day five patient-derived sarcoma spheroids were digested and split into triplicates in X-VIVO20 and 1% PS culture media with an excessive amount of AMP at 0.4mM (Sigma-Aldrich) incubated for 30 minutes.
After 1500 RPM was applied for three minutes, 25 μL supernatant were removed and mixed with 25 μL of 200 μM ATP (Sigma-Aldrich) in the same media. 25 μL of this mixture was added to a white opaque OptiPlate (PerkinElmer) containing 25 μL Cell-Titer Glo reagent (Promega, US). Relative luminescence unit (RLU) can be read on SPARK 10M plate reader with an integration time of 100ms. […]

SMILES | Kb (hA2B (A2BAR)) [nM] | Ki hA3 (human A3AR) | Rescue of killing of breast cancer TILs against autologous tumor cells [1] | Ki (human A3AR; read-out: Ki hA3) [nM]
CC1=C(C(=O)OC(C)C)C(c2ccco2)n2c(nc3ccccc32)N1 (stereo not drawn) [ISAM-140, isopropyl 4-(furan-2-yl)−2-methyl-1,4-dihydrobenzo[4 5] imidazo[1,2 a]pyrimidine-3-carboxylate] | 27 | – | – | –
CC1=C(C(=O)OC(C)C)C(c2ccoc2)n2c(nc3cc(Cl)ccc32)N1 (stereo not drawn) [ISAM-M89A] | – | devoid of affinity | rescued killing | –
CC1=C(C(=O)OC(C)C)C(c2ccco2)n2c(nc3ccccc32)N1Cc1ccccc1F (stereo not drawn) [ISAM-R56A] | 6.15 | – | rescued killing | > 1000

From article PMC9115112, “A2B adenosine receptor antagonists rescue lymphocyte activity in adenosine-producing patient-derived cancer models” (Journal for Immunotherapy of Cancer, 2022)
